Literature values as cited in article PMC10292217, “Gene-nutrient interactions that impact magnesium homeostasis increase risk for neural tube defects in mice exposed to dolutegravir” (Frontiers in Cell and Developmental Biology, 2023).
Where two headings read alike, the source gives them in different places.

Columns and labels:
FOLR1 = test system: FOLR1; design: method as in Gilmore et al., 2022; details: human choriocarcinoma cells; ref Gilmore et al., 2022; cited from earlier work
C57BL/6J mice = test system: C57BL/6J mice; design: method as in Mohan et al., 2021; details: ref Mohan et al., 2021, cited from earlier work
[1] = cited from earlier work
[2] = human, non-pregnant, 50 mg single dose, ref Min et al., 2010
[3] = human, non-pregnant, 100 mg single dose, ref Min et al., 2010
[4] = human, non-pregnant, 100 mg × 7d, ref Wang et al., 2019
[5] = pregnant women, 2nd trimester, 50 mg/d, ref Mulligan et al., 2018

C[C@@H]1CCO[C@H]2Cn3cc(C(=O)NCc4ccc(F)cc4F)c(=O)c(O)c3C(=O)N12 [DTG, Dolutegravir]
FOLR1-mediated uptake (FOLR1): reduced
NTD-affected litters (C57BL/6J mice; 2.5 mg/kg/d oral DTG co-formulated with TDF and FTC from GD 0.5, folate-sufficient diet, 5/150 litters): 3.3%
NTDs observed (C57BL/6J mice; 5x higher dose, n = 111 litters): no NTDs were observed
AUC 0-24 [1, 2]: 70.8 (50 mg single dose) ^1 µg*h/mL
Cmax [1, 2]: 4.6 (50 mg single dose) ^1 µg/mL
Tmax [1, 2]: 1.25 h (50 mg single dose) ^1
t½ [1, 2]: 13–14 h (50 mg single dose) ^1
AUC 0-24 [1, 3]: 131 (100 mg single dose) ^1 µg*h/mL
Cmax [1, 3]: 8.1 (100 mg single dose) ^1 µg/mL
AUC 0-24 [1, 4]: 92.3 (100 mg × 7d) ^2 µg*h/mL
Cmax [1, 4]: 6.7 (100 mg × 7d) ^2 µg/mL
AUC 0-24 [1, 5]: 47.6 (33.4–63.7) (2nd trimester, 50 mg/d) ^3 µg*h/mL
Cmax [1, 5]: 3.62 (2.57–4.63) µg/mL
Tmax [1, 5]: 2 h (2nd trimester, 50 mg/d) ^3
t½ [1, 5]: 11 h (2nd trimester, 50 mg/d) ^3
